From patent US20100129434A1, “COMPOSITIONS AND METHODS FOR THE TREATMENT OF MUCORMYCOSIS AND OTHER FUNGAL DISEASES” (priority 2006, published 2010)
In brackets after ≈: the same amount, converted by molar mass.

How the values were obtained:
R. oryzae [1] = assay: Survival of guinea pigs infected with R. oryzae and treated with iron chelators; format: in vivo; settings: guinea pigs infected with R. oryzae
From the text: The role of iron metabolism in the pathogenesis of mucormycosis allows the possibility of utilizing effective iron chelators for antifungal therapy, including as an adjunctive antifungal therapy.

R. oryzae 99-880 = assay: MIC and MFC of deferiprone and deferoxamine against R. oryzae; format: cell-based, Rhizopus oryzae; settings: for MFC / MIC: R. oryzae
Method: Initially, the in vitro activity of deferiprone against R. oryzae was assessed in this study. Briefly, R. oryzae 99-880 was isolated from a brain abscess of a diabetic patient. The organism was grown on potato dextrose agar (PDA) for 3 days at 37° C. In some experiments, R oryzae was starved for iron by growth on PDA in the presence of 1 mM of ascorbic acid and ferrozine. The sporangiospores were collected in endotoxin free PBS containing 0.01% Tween 80, washed with PBS then counted with hemacytometer to prepare the final inocula. For susceptibility testing, the minimum inhibitory concentration (MIC) and minimum fungicidal concentration (MFC) were determined for Def and deferoxamine by the method of Espinel-Ingroff (J Clin Microbiol 39:954 (2001)).

R. oryzae [2] = assay: Survival of diabetic ketoacidotic (DKA) mice infected with R. oryzae; format: in vivo, BALB/c male mice; settings: for survival compared to placebo: 4.3×10^3 spores; for efficacy of Def on administration of FeCl3: Def 100 mg/kg qod plus FeCl3 60 mg/kg iv
Method: (§1) Briefly, for in vivo infection, BALB/c male mice (>20 g) were rendered diabetic with a single i.p. injection of 210 mg/kg streptozotocin in 0.2 ml citrate buffer 10 days prior to fungal challenge. […] Mice were infected through the tail vein with the appropriate inocula of R. oryzae. To confirm the inocula, dilutions were streaked on PDA plates and colonies were counted following a 24 h incubation period at room temperature. The primary efficacy endpoint was time to death. As a secondary endpoint, brain fungal burden (the primary target organ) was determined by homogenization by rolling a pipette on organs placed in Whirl-Pak bags (Nasco, Fort Atkinson, Wis.) containing 2 ml saline. The homogenate was serially diluted in 0.85% saline and then quantitatively cultured on PDA. Values were expressed as log 10 cfu g^−1 tissue. All procedures involving mice were approved by the institutional animal use and care committee, following the National Institutes of Health guidelines for animal housing and care.
Deferiprone (Apotex Research Inc.) was dissolved in iron-free water and administered intraperitoneally at 50, 100, or 200 mg/kg qd or qod (every other day). Treatment was begun 24 h post infection and continued for a total of 4 doses. Control groups were treated with the diluent, 5% dextrose water.
Deferiprone is known to form molecular complexes with ferric iron (^3+Fe) in a 1:3 ratio of iron to deferiprone. Based on the known molecular weights of ferric chloride (FeCl3, molecular weight 162.22 g/mol) and deferiprone (molecular weight 139 g/mol), a 60 mg/kg dose of FeCl3 was calculated to result in a significant excess of ^3+Fe vs. a 100 mg/kg dose of deferiprone given to an 18 g mouse: ^3+Fe moles=(0.060 g/kg*0.018 kg [mouse weight]/162.22 g/mol)=6.5×10^−6 mol vs. deferiprone moles=(0.1 g/kg*0.018 kg [mouse weight]/139 g/mol)=1.3×10^−5 mol Ratio=1:2 moles of ^3+Fe to deferiprone, which is more than that required to achieve a saturating 1:3 ratio.
Statistical analysis was performed using the nonparametric log rank test was used to determine differences in survival times of the mice. Differences in tissue fungal burdens in the infected organs were compared by the nonparametric Steel test for multiple comparisons. P values of <0.05 were considered significant.
Deferasirox (Novartis Pharmaceuticals, Basel, Switzerland) was suspended in 0.5% hydroxypropylcellulose (Klucel) and administered by oral gavage at 1, 3, or 10 mg/kg […] (qd) or every other day (qod). Treatment was begun 24 h post infection and continued for a total of 5 or 7 doses. Control groups were treated with the diluent, 5% dextrose water and 0.5% Klucel. In some experiments, a saturating dose of free iron was administered with deferasirox. Deferasirox is known to form molecular complexes with ferric iron (^3+Fe) in a 1:2 ratio of iron to deferasirox. Based on the known molecular weights of ferric chloride (FeCl3, molecular weight 162.22 g/mol) and deferasirox (molecular weight 373.4 g/mol), a 2.8 mg/kg dose of FeCl3 was calculated to result in a significant excess of ^3+Fe vs. a 10 mg/kg dose of deferasirox given to an 18 g mouse: ^3+Fe moles=(0.0028 g/kg*0.018 kg [mouse weight]/162.22 g/mol)=3×10^−7 mol vs. deferasirox moles=(0.01 g/kg*0.018 kg [mouse weight]/373.4 g/mol)=5×10^−7 mol Ratio=1:1.7 moles of ^3+Fe to deferasirox, which is more than that required to achieve a saturating 1:2 ratio.
The nonparametric log rank test was used to determine differences in survival times of the mice. Differences in tissue fungal burdens, splenic lymphocyte frequencies, and whole organ cytokines in the infected organs were compared by the Mann Whitney U test. P values of <0.05 were considered significant.

R. oryzae [3] = assay: Tissue fungal burden of DKA mice infected with R. oryzae; format: in vivo, BALB/c male mice; settings: 3.8×10^3 spores, two doses, brains harvested about 54 h post-infection, P<0.036
Method: as §1
(§2) For in vivo infection, BALB/c male mice (>20 g) were rendered diabetic with a single i.p. injection of 210 mg/kg streptozotocin in 0.2 ml citrate buffer 10 days prior to fungal challenge. […] For neutropenic mouse model, mice were injected with a single i.p. dose of 200 mg/kg cyclolphosphamide (Bristol Myer Squibb) 2 days prior to infection with R. oryzae. […] Mice were infected through the tail vein with the appropriate inocula of R. oryzae. To confirm the inocula, dilutions were streaked on PDA plates containing 0.1% triton and colonies were counted following a 24 h incubation period at 37° C. The primary efficacy endpoint was time to death. As a secondary endpoint, brain fungal burden (the primary target organ) was determined by homogenization by rolling a pipette on organs placed in Whirl-Pak™ bags (Nasco®, Fort Atkinson, Wis.) containing 1 ml saline. The homogenate was serially diluted in 0.85% saline and then quantitatively cultured on PDA. Values were expressed as log10 cfu g−1 tissue. Finally, for histopathological analysis, infected organs were collected from mice and fixed in 10% zinc formalin. Fixed tissues were embedded in paraffin, and […] sections were stained with haematoxylin and eosin for light microscopy examination. All procedures involving mice were approved by the institutional animal use and care committee, following the National Institutes of Health guidelines for animal housing and care.

R. oryzae [4] = assay: Survival of neutropenic mice infected with R. oryzae; format: in vivo; settings: prophylaxis from day −1, Def qod, LAmB qd or both, four doses, placebo 0%
Method: as §2
Two days later, mice were infected via the tail-vein with 2.7×10^3 spores of R. oryzae 99-892.

invasive mucormycosis = settings: patients treated with deferoxamine; cited from earlier work
[5] = Rhizopus arrhizus, 99880, 24 h, 24 h
[6] = Rhizopus arrhizus, 99880, 48 h, 48 h

SMILES | Mean (±SD) Survival Time (R. oryzae [1]) | static or cidal effect against R. oryzae (R. oryzae 99-880; 24 h of incubation) | static or cidal effect against R. oryzae (R. oryzae 99-880; 24 h of incubation, listed as deferiprone) | static or cidal effect against R. oryzae (R. oryzae 99-880; 48 h of incubation) | static or cidal effect against R. oryzae (R. oryzae 99-880; 48 h of incubation, listed as deferiprone) | MFC (R. oryzae 99-880; 48 h) | MIC (R. oryzae 99-880; [5]) | MIC (R. oryzae 99-880; [6]) | 28-day survival (R. oryzae [2]; DKA mice infected with R. oryzae, treatment from 24 h post infection, 4 doses, LAmB 15 mg/kg qd iv, Def 100 mg/kg qod ip, placebo 0%) | survival compared to placebo (R. oryzae [2]; DKA mice, 50 mg/kg qd or qod) | survival compared to placebo (R. oryzae [2]; DKA mice, 100 mg/kg qd or 200 mg/kg qd or qod) | survival compared to placebo (R. oryzae [2]; DKA mice, 100 mg/kg qod, 4 doses from 24 h post infection, P=0.027) | efficacy of Def on administration of FeCl3 (R. oryzae [2]; DKA mice) | efficacy of Def on administration of FeCl3 (R. oryzae [2]; DKA mice, listed as Def) | 28-day survival compared to placebo (R. oryzae [2]; DKA mice, LAmB 15 mg/kg qd or deferiprone 100 mg/kg qod, P<0.003 Log Rank) | brain fungal burden compared to placebo (R. oryzae [3]) | survival (R. oryzae [4]) | MFC (R. oryzae 99-880; 24 h, listed as deferoxamine) | MFC (R. oryzae 99-880; 48 h, listed as deferoxamine) | mortality of invasive mucormycosis (invasive mucormycosis)
CCc1c(O)c(=O)ccn1CC [CP94] | 8.7 ± 1.0 days | – | – | – | – | – | – | – | – | – | – | – | – | – | – | – | – | – | – | –
Cc1c(O)c(=O)ccn1C [Deferiprone, 1,2 dimethyl-3-hydroxypyrid-4-1] | 16.2 ± 4.0 days | static | static effect | cidality | cidal effect | 6.25 µg/mL (≈ 44.9 µM) | 3.12 µg/mL (≈ 22.4 µM) | 6.25 µg/mL (≈ 44.9 µM) | 30% | did not improve survival | did not improve survival | improved survival | completely abrogated | abrogated | improved 28-day survival | reduced brain fungal burden | 22% | – | – | –
CC(=O)N(O)CCCCCNC(=O)CCC(=O)N(O)CCCCCNC(=O)CCC(=O)N(O)CCCCCN [Deferoxamine] | 4.8 ± 1.1 days | – | – | – | – | – | > 100 µg/mL | > 100 µg/mL | – | – | – | – | – | – | – | – | – | > 100 µg/mL | > 100 µg/mL | > 80%
